Laboratory results reported in patent publication US20180354962A1, “[{[2,3-Dihydro-1H-inden-1-yl]amino}-2H,3H-furo[3,2-b]pyridin-3-yl]acetic acids, pharmaceutical compositions and uses thereof” (Boehringer Ingelheim International GmbH, priority 2015, published 2018).
Converted amounts (≈) assume the structure as drawn.

Experiments:
human GPR40 receptor = human GPR40 receptor (Homo sapiens, UniProt O14842); assay: IP1 accumulation measurements using the IPOne assay system; type: cell-based; conditions: 1321N1 cells stably expressing human GPR40; 1 h stimulation at 37° C.
Method: IP1 accumulation measurements using the IPOne assay system—1321N1 cells stably expressing human GPR40 receptor (Euroscreen, Belgium) are seeded 24 h before the assay in white 384-well plates in culture medium containing 10% FCS, 1% Na-Pyruvate and 400 μg/mL G418. IP1 is assayed according to the manufacturer's description (Cisbio Bioassays, France). In brief, the assay is started by substitution of the culture medium by stimulation buffer (Hepes 10 mM, CaCl2 1 mM, MgCl2 0.5 mM, KCl 4.2 mM, NaCl 146 mM, glucose 5.5 mM and LiCl 50 mM, pH 7.4). Cells are stimulated for 1 h at 37° C., 5% CO2 by addition of the compounds that are diluted in stimulation buffer containing LiCl. Assays are stopped by adding HTRF-conjugates (IP1-d2 and Anti-IP1 cryptate Tb) and lysis buffer, provided by the manufacturer. After an incubation time of 1 h at room temperature plates are measured using an EnVision™, Perkin Elmer. The obtained fluorescence ratios at 665/615 […] are then used to calculate the pEC50 values using Assay Explorer 3.3 Software (Accelrys, Inc.) by interpolation using an IP1 reference curve and subsequent sigmoidal curve fitting allowing for a variable hill slope.

[1] = Aqueous solubility from DMSO stock, LC-UV; type: physicochemical; conditions: aqueous buffer, kinetic from dmso stock; buffer pH 2.2, 24 h shaking, 2.5% DMSO
Method: The aqueous solubility of the compounds of the invention is determined by comparing the amount dissolved in buffer to the amount in an acetonitrile/water (1/1) solution. Starting from a 10 mM DMSO stock solution aliquots are diluted with acetonitrile/water (1/1) or buffer, respectively. After 24 h of shaking, the solutions are filtrated and analyzed by LC-UV. The amount dissolved in buffer is compared to the amount in the acetonitrile solution. Solubility is usually being measured from 0.001 to 0.125 mg/mL at a DMSO concentration of 2.5%. If more than 90% of the compound is dissolved in buffer, the value is marked with “>”.

[2] = molecular target: T1, cytochrome P450 2C8-isoenzyme (Homo sapiens, UniProt P10632); assay: Inhibition of CYP-2C8 (amodiaquine deethylation, human liver microsomes); type: in vitro ADME; conditions: human liver microsomes 0.05 mg/mL, amodiaquine 1 μM, 37° C.
T1 construct: is assayed at 37° C. with human liver microsomes; from tissue; host or cells: human liver microsomes
T1 sequence (P10632 1-490): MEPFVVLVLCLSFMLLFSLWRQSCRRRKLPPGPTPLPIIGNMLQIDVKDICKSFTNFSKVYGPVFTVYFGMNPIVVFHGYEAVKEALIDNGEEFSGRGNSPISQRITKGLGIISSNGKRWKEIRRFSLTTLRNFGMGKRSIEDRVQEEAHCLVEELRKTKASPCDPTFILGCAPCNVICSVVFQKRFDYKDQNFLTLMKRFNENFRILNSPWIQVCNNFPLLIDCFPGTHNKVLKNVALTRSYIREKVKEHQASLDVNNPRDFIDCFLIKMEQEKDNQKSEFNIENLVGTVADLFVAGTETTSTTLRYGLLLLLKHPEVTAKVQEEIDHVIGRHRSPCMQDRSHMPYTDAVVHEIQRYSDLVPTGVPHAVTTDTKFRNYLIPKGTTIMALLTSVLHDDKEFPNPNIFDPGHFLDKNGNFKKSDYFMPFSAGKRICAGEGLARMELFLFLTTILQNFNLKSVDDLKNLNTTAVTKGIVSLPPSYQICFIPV
Method: All assays are carried out on a robotic system in 96 well plates. The final incubation volume contains TRIS buffer (0.1 M), MgCl2 (5 mM), human liver microsomes (0.05 mg/mL), amodiaquine (1 μM) and the test compound at five different concentrations or no compound (high control) in duplicate (e.g. highest concentration 10-50 μM with subsequent serial 1:4 dilutions). Following a short preincubation period, reactions are started with the cofactor (NADPH, 1 mM) and stopped by cooling the incubation down to 8° C. and subsequently by addition of one volume of acetonitrile. An internal standard solution—the stable isotope d5-desethylamodiaquine—is added after quenching of incubations. Peak area analyte (=metabolite formed) and internal standard is determined by LC-MS/MS. The resulting peak area ratio analyte to internal standard in these incubations is compared to a control activity containing no test compound. Within each of the assay runs, the IC50 of a positive control inhibitor (Montelukast) is determined. Experimental IC50 values are calculated by least square regression according to the following equation: % control activity=(100% control activity/(1+(I/IC50)S))−B with I=inhibitor concentration; S=slope factor; B=background activity (lower plateau of the inhibition curve) If the inhibition of the reaction is already >50% at the lowest concentration of the test compound, the IC50 is assigned “<lowest concentration tested” (usually <0.4 μM). If the inhibition of the reaction is still <50% at the highest concentration of the test compound, the IC50 is assigned “>highest concentration tested” (usually >50 μM).

[3] = molecular target: T2, cytochrome P450 2C9-isoenzyme (Homo sapiens, UniProt P11712); assay: Inhibition of CYP-2C9 (diclofenac hydroxylation, human liver microsomes); type: in vitro ADME; conditions: human liver microsomes 0.1 mg/mL, diclofenac 10 μM, 37° C.
T2 construct: is assayed at 37° C. with human liver microsomes; from tissue; host or cells: human liver microsomes
Method: All assays are carried out on a robotic system in 96 well plates. The final incubation volume contains TRIS buffer (0.1 M), MgCl2 (5 mM), human liver microsomes (0.1 mg/mL), diclofenac (10 μM) and the test compound at five different concentrations or no compound (high control) in duplicate (e.g. highest concentration 10-50 μM with subsequent serial 1:4 dilutions). Following a short preincubation period, reactions are started with the cofactor (NADPH, 1 mM) and stopped by cooling the incubation down to 8° C. and subsequently by addition of one volume of acetonitrile. An internal standard solution—the stable isotope 13C6-hydroxydiclofenac—is added after quenching of incubations. Peak area analyte (=metabolite formed) and internal standard is determined by LC-MS/MS. The resulting peak area ratio analyte to internal standard in these incubations is compared to a control activity containing no test compound. Within each of the assay runs, the IC50 of a positive control inhibitor (sulfaphenazole) is determined. Experimental IC50 values are calculated by least square regression according to the following equation: % control activity=(100% control activity/(1+(I/IC50)S)))−B with I=inhibitor concentration S=slope factor B=background activity (lower plateau of the inhibition curve) If the inhibition of the reaction is already >50% at the lowest concentration of the test compound, the IC50 is assigned “<lowest concentration tested” (usually <0.4 μM). If the inhibition of the reaction is still <50% at the highest concentration of the test compound, the IC50 is assigned “>highest concentration tested” (usually >50 μM).

T2 sequence (P11712 whole entry): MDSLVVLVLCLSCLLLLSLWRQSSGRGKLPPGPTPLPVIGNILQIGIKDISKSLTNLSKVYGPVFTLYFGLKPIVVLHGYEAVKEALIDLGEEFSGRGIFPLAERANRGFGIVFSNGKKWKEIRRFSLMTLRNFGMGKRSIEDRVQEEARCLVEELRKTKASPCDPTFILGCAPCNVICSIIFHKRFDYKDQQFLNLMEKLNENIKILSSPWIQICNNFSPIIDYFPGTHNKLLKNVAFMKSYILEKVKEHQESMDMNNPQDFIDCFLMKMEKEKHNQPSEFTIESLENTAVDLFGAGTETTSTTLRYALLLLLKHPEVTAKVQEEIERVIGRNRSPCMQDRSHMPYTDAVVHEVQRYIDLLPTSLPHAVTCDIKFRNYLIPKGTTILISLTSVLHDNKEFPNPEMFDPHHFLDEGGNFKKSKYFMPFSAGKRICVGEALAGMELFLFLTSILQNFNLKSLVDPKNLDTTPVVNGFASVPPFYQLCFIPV
Sequence of human GPR40 receptor (O14842 whole entry): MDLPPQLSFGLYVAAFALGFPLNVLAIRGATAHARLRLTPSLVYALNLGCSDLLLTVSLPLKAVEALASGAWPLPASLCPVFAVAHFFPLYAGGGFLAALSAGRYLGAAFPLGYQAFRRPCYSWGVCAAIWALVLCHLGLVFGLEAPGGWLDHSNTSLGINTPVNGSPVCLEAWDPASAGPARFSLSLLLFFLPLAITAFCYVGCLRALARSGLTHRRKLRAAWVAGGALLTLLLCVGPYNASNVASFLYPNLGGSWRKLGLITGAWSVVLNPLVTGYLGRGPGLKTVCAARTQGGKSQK

Cc1cc(-c2ccc(=O)n(C)c2)cc(C)c1-c1cccc2c1CC[C@H]2Nc1cnc2c(c1)OCC2CC(=O)O (stereo partly drawn) [Example 121, 2-(6-{[(1R)-4-[2,6-Dimethyl-4-(1-methyl-6-oxo-1,6-dihydropyridin-3-yl)phenyl]-2,3-dihydro-1H-inden-1-yl]amino}-2H,3H-furo[3,2-b]pyridin-3-yl)acetic acid]
EC50 (human GPR40 receptor): 0.061 µM
solubility at 24 h [1]: 51 µg/mL (≈ 97.8 µM)
IC50 [2]: 29 µM
IC50 [3]: > 50 µM

N#CC1(c2ccccc2-c2cccc3c2CC[C@H]3Nc2cnc3c(c2)OCC3CC(=O)O)CC1 (stereo partly drawn) [Example 131, 2-(6-{[(1R)-4-[2-(1-Cyanocyclopropyl)phenyl]-2,3-dihydro-1H-inden-1-yl]amino}-2H,3H-furo[3,2-b]pyridin-3-yl)acetic acid]
EC50 (human GPR40 receptor): 6.39 µM
solubility at 24 h [1]: 67 µg/mL (≈ 148 µM)
IC50 [2]: 37 µM
IC50 [3]: > 50 µM

Cc1cc(-c2nnn(CC(C)(C)O)n2)cc(C)c1-c1cccc2c1CC[C@H]2Nc1cnc2c(c1)OCC2CC(=O)O (stereo partly drawn) [Example 122, 2-(6-{[(1R)-4-{4-[2-(2-Hydroxy-2-methylpropyl)-2H-1,2,3,4-tetrazol-5-yl]-2,6-dimethylphenyl}-2,3-dihydro-1H-inden-1-yl]amino}-2H,3H-furo[3,2-b]pyridin-3-yl)acetic acid]
EC50 (human GPR40 receptor): 0.024 µM
solubility at 24 h [1]: 45 µg/mL (≈ 81.1 µM)
IC50 [2]: 32 µM
IC50 [3]: > 50 µM

Cc1cc(OC2CCOCC2)cc(C)c1-c1cccc2c1CC[C@H]2Nc1cnc2c(c1)OCC2CC(=O)O (stereo partly drawn) [Example 119, 2-(6-{[(1R)-4-[2,6-Dimethyl-4-(oxan-4-yloxy)phenyl]-2,3-dihydro-1H-inden-1-yl]amino}-2H,3H-furo[3,2-b]pyridin-3-yl)acetic acid]
EC50 (human GPR40 receptor): 0.09 µM
solubility at 24 h [1]: 16 µg/mL (≈ 31.1 µM)
IC50 [2]: 41 µM
IC50 [3]: > 50 µM

Cc1cc(C(=O)N(C)C)cc(C)c1-c1cccc2c1CC[C@H]2Nc1cnc2c(c1)OCC2CC(=O)O (stereo partly drawn) [Example 126, 2-(6-{[(1R)-4-[4-(Dimethylcarbamoyl)-2,6-dimethylphenyl]-2,3-dihydro-1H-inden-1-yl]amino}-2H,3H-furo[3,2-b]pyridin-3-yl)acetic acid]
EC50 (human GPR40 receptor): 1.87 µM
solubility at 24 h [1]: 79 µg/mL (≈ 163 µM)
IC50 [2]: 37 µM
IC50 [3]: > 50 µM

Cc1cc(-c2cc(=O)n(C)cn2)cc(C)c1-c1cccc2c1CC[C@H]2Nc1cnc2c(c1)OCC2CC(=O)O (stereo partly drawn) [Example 133, 2-(6-{[(1R)-4-[2,6-Dimethyl-4-(1-methyl-6-oxo-1,6-dihydropyrimidin-4-yl)phenyl]-2,3-dihydro-1H-inden-1-yl]amino}-2H,3H-furo[3,2-b]pyridin-3-yl)acetic acid]
EC50 (human GPR40 receptor): 0.033 µM
solubility at 24 h [1]: 78 µg/mL (≈ 149 µM)
IC50 [2]: 21 µM
IC50 [3]: > 50 µM

N#Cc1cccc(C#N)c1-c1cccc2c1CC[C@H]2Nc1cnc2c(c1)OCC2CC(=O)O (stereo partly drawn) [Example 130, 2-(6-{[(1R)-4-(2,6-Dicyanophenyl)-2,3-dihydro-1H-inden-1-yl]amino}-2H,3H-furo[3,2-b]pyridin-3-yl)acetic acid]
EC50 (human GPR40 receptor): > 10 µM
solubility at 24 h [1]: 84 µg/mL (≈ 192 µM)
IC50 [2]: > 50 µM
IC50 [3]: > 50 µM

Cc1cc(-c2ccn(C)c(=O)c2)cc(C)c1-c1cccc2c1CC[C@H]2Nc1cnc2c(c1)OCC2CC(=O)O (stereo partly drawn) [Example 120, 2-(6-{[(1R)-4-[2,6-Dimethyl-4-(1-methyl-2-oxo-1,2-dihydropyridin-4-yl)phenyl]-2,3-dihydro-1H-inden-1-yl]amino}-2H,3H-furo[3,2-b]pyridin-3-yl)acetic acid]
EC50 (human GPR40 receptor): 0.052 µM
solubility at 24 h [1]: 29 µg/mL (≈ 55.6 µM)
IC50 [2]: 12 µM
IC50 [3]: > 50 µM

Cc1nc(-c2cc(C)c(-c3cccc4c3CC[C@H]4Nc3cnc4c(c3)OCC4CC(=O)O)c(C)c2)no1 (stereo partly drawn) [Example 132, 2-(6-{[(1R)-4-[2,6-Dimethyl-4-(5-methyl-1,2,4-oxadiazol-3-yl)phenyl]-2,3-dihydro-1H-inden-1-yl]amino}-2H,3H-furo[3,2-b]pyridin-3-yl)acetic acid]
EC50 (human GPR40 receptor): 0.036 µM
solubility at 24 h [1]: 3 µg/mL (≈ 6.04 µM)
IC50 [2]: 23 µM
IC50 [3]: > 50 µM

Cc1cc(OCCC(C)(C)O)cc(C)c1-c1ccc(F)c2c1CC[C@H]2Nc1cnc2c(c1)OCC2CC(=O)O (stereo partly drawn) [Example 1, 2-(6-{[(1R)-7-Fluoro-4-[4-(3-hydroxy-3-methylbutoxy)-2,6-dimethylphenyl]-2,3-dihydro-1H-inden-1-yl]amino}-2H,3H-furo[3,2-b]pyridin-3-yl)acetic acid]
EC50 (human GPR40 receptor): 0.057 µM
IC50 [2]: 17 µM
IC50 [3]: > 50 µM

Cc1cc(OCCC(C)(C)O)cc(C)c1-c1cccc2c1CC[C@H]2Oc1ccc2c(c1)OC[C@H]2CC(=O)O [7 (WO 2013/144098), reference compound]
IC50 [2]: 5 µM
IC50 [3]: > 10 µM

Cc1ccc(Cl)c(-c2cccc3c2CC[C@H]3Nc2cnc3c(c2)OCC3CC(=O)O)c1Cl (stereo partly drawn) [Example 128, 2-(6-{[(1R)-4-(2,6-dichloro-3-methylphenyl)-2,3-dihydro-1H-inden-1-yl]amino}-2H,3H-furo[3,2-b]pyridin-3-yl)acetic acid]
EC50 (human GPR40 receptor): 0.126 µM
solubility at 24 h [1]: 1 µg/mL (≈ 2.13 µM)
IC50 [2]: 14 µM
IC50 [3]: > 50 µM

Cc1cc(OCC(C)(C)O)cc(C)c1-c1cccc2c1CC[C@H]2Nc1cnc2c(c1)OCC2CC(=O)O (stereo partly drawn) [Example 118, 2-(6-{[(1R)-4-[4-(2-Hydroxy-2-methylpropoxy)-2,6-dimethylphenyl]-2,3-dihydro-1H-inden-1-yl]amino}-2H,3H-furo[3,2-b]pyridin-3-yl)acetic acid]
EC50 (human GPR40 receptor): 0.158 µM
solubility at 24 h [1]: 66 µg/mL (≈ 131 µM)
IC50 [2]: > 50 µM
IC50 [3]: > 50 µM
